Data published in patent publication US12612380B2, “Non-lysosomal glucosylceramidase inhibitors and uses thereof” (ALECTOS THERAPEUTICS INC., priority 2019, dated 2026).
Like-named read-outs stand apart in the source and are kept apart here.

How the values were obtained:
GBA2 [1] = target: T1, GBA2 (Homo sapiens, UniProt Q9HCG7); experiment: Binding specificity (selectivity) for GBA2 over other enzymes; format: biochemical; conditions: compared to a suitable reference compound, e.g. NB-DNJ (miglustat) or AMP-DNM
T1 sequence (Q9HCG7 1-927): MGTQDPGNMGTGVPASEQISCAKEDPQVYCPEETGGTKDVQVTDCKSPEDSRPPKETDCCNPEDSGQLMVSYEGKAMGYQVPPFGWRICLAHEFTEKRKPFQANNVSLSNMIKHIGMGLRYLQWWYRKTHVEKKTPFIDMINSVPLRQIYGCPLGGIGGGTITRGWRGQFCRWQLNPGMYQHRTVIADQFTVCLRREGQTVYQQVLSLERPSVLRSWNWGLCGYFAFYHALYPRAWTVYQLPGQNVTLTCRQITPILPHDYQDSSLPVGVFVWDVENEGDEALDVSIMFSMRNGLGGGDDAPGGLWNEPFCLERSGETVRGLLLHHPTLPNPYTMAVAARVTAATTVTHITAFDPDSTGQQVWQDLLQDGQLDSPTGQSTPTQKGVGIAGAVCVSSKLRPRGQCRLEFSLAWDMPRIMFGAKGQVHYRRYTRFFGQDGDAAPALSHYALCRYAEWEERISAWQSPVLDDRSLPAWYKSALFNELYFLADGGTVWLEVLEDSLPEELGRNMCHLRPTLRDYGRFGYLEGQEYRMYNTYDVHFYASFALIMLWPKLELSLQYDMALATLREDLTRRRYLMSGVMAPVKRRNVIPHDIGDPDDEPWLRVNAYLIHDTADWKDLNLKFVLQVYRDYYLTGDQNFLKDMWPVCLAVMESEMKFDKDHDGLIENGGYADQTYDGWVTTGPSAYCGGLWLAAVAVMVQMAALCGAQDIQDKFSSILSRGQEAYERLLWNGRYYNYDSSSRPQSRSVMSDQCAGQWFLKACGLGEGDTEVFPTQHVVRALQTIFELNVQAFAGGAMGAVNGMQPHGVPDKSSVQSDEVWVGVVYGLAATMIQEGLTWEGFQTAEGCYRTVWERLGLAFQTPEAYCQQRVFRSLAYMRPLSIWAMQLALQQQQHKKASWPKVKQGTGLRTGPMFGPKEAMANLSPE
Text: In some embodiments, one or more of the compounds according to the invention may specifically bind a GBA2. In alternative embodiments, one or more of the compounds according to the invention may specifically bind the active site of a GBA2. […] In alternative embodiments, one or more of the compounds according to the invention may specifically bind the human non-lysosomal glucosylceramidase (GBA2) over the human lysosomal glucosylceramidase (GCase) and/or the human cytosolic glucosylceramidase (GBA3). In alternative embodiments, one or more of the compounds according to the invention may specifically bind the human non-lysosomal glucosylceramidase (GBA2) over the human glucosylceramide synthase (GCS). In alternative embodiments, one or more of the compounds according to the invention may specifically bind the human non-lysosomal glucosylceramidase (GBA2) over an intestinal alpha-glucosidase, where the intestinal alpha-glucosidase may be a sucrase-isomaltase or a maltase-glucoamylase.

GBA2 [2] = target: T1, GBA2; experiment: Determination of IC50 values for inhibition of GBA2 in cell lysate; format: biochemical; parameters: host or cells: HEK293T (lentiviral transduction, puromycin selection); used as cellular homogenate
How it was run: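 Fluorogenic 4-MU-β-glucoside (250 μM) turnover over 20 min at 37 °C, pH 5.5, measured after NaOH/glycine stop (ex 365, em 450 nm). Enzyme source: lysate (0.083 mg/mL) of lentivirally transduced GBA2-HEK293T, GCase blocked by 20 μM azaspiro-octanediol; compound preincubated 5 min; IC50 = 50% inhibition concentration.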

[3] = Brain concentration when administered in vivo; conditions: compared to a suitable reference compound, e.g. NB-DNJ (miglustat) or AMP-DNM
Text: Permeability can be assessed using a variety of standard experimental techniques, including without limitation in situ perfusion, ex vivo tissue diffusion, in vitro cell monolayers (e.g. Caco-2 cells, MDCK cells, LLC-PK1 cells), and artificial cell membranes (e.g. PAMPA assay); suitable techniques for measuring effective permeability (Peff) or apparent permeability (Papp) are reviewed for example by Volpe in The AAPS Journal, 2010, 12(4), 670-678. In some embodiments, one or more of the compounds according to the invention may show enhanced permeability when tested in one or more of these assays for determining Peff or Papp. […] In some embodiments, “enhanced permeability” means an increase in measured Peff or Papp by any value between about 10% and about 100%, or of any integer value between about 10% and about 100%, for example, about 10%, 20%, 30%, 40%, 50%, 60%, 70%, 80%, 90%, 100%, or over 100%, or an increase by about 1-fold, 2-fold, or 3-fold, or more, as compared to a suitable reference compound such as, for example, N-butyldeoxynojirimycin (NB-DNJ, miglustat) or N-(5-adamantane-1-yl-methoxy)pentyl)-deoxynojirimycin (AMP-DNM, Genz-529648). In some embodiments, “enhanced permeability” means a measurable Papp value (i.e. a value greater than zero) in a suitable assay to measure Papp using in vitro cell monolayers. In some embodiments, “enhanced permeability” means a Papp value greater than 2×10^−6 cm/s in a suitable assay to measure Papp using in vitro cell monolayers. In alternative embodiments, “enhanced permeability” means a Papp value in the range 2×10^−6 cm/s to 40×10^−6 cm/s in a suitable assay to measure Papp using in vitro cell monolayers. In some embodiments, “higher brain concentration” means an increase in measured brain concentration when the compound is administered in vivo by any value between about 10% and about 100%, or of any integer value between about 10% and about 100%, for example, about 10%, 20%, 30%, 40%, 50%, 60%, 70%, 80%, 90%, 100%, or over 100%, or an increase by about 1-fold, 2-fold, 3-fold, 4-fold, 5-fold, 10-fold, 20-fold, 30-fold, 40-fold, or 50-fold, or more, as compared to a suitable reference compound such as, for example, N-butyldeoxynojirimycin (NB-DNJ, miglustat) or N-(5-adamantane-1-yl-methoxy)pentyl)-deoxynojirimycin (AMP-DNM, Genz-529648).

[4] = cellular homogenate of HEK293T cells overexpressing human GBA2, 250 μM 4-methylumbelliferone-β-D glucopyranoside, pH 5.5, 37° C., GCase inhibitor present, read-out: GBA2 IC50

Structure (SMILES) | binding specificity (IC50 or Ki of other molecule / GBA2) (GBA2 [1]) | IC50 (GBA2 [2]; [4]) [nM] | brain concentration when administered in vivo [3] | IC50 (GBA2 [2]) [nM]
CC(C)[C@H]1CC[C@@H](CN2C[C@H](O)[C@@H](O)[C@H](O)[C@H]2C)CC1 [Example 7, (2R,3R,4R,5S)-1-(((1s,4S)-4-isopropylcyclohexyl)methyl)-2-methylpiperidine-3,4,5-triol] | enhanced binding specificity | < 100 | higher brain concentrations | 
C[C@@H]1[C@@H](O)[C@H](O)[C@@H](O)CN1C[C@H]1CC[C@H](C(F)(F)F)CC1 [Example 12, (2R,3R,4R,5S)-2-methyl-1-(((1r,4R)-4-(trifluoromethyl)cyclohexyl)methyl)piperidine-3,4,5-triol] | enhanced binding specificity | < 100 | higher brain concentrations | 
C[C@@H]1[C@@H](O)[C@H](O)[C@@H](O)CN1CCc1cccc(Cl)c1F [Example 45, (2R,3R,4R,5S)-1-(3-chloro-2-fluorophenethyl)-2-methylpiperidine-3,4,5-triol] | enhanced binding specificity |  | higher brain concentrations | < 100
C[C@@H]1[C@@H](O)[C@H](O)[C@@H](O)CN1CC1CCN(c2ccc(F)cc2)CC1 [Example 85, (2R,3R,4R,5S)-1-((1-(4-fluorophenyl)piperidin-4-yl)methyl)-2-methylpiperidine-3,4,5-triol] |  | < 100 | higher brain concentrations | 
C[C@@H]1[C@@H](O)[C@H](O)[C@@H](O)CN1C[C@H]1CCN(c2cccc3scnc23)C1 [Example 129, (2R,3R,4R,5S)-1-(((R)-1-(benzo[d]thiazol-4-yl)pyrrolidin-3-yl)methyl)-2-methylpiperidine-3,4,5-triol] | enhanced binding specificity | < 100 |  | 
C[C@@H]1[C@@H](O)[C@H](O)[C@@H](O)CN1C[C@@H]1CCN(c2ccccc2C(F)(F)F)C1 [Example 131, (2R,3R,4R,5S)-2-methyl-1-(((S)-1-(2-(trifluoromethyl)phenyl)pyrrolidin-3-yl)methyl)piperidine-3,4,5-triol] | enhanced binding specificity | < 100 |  | 
Cc1ccccc1N1CCC[C@H](CN2C[C@H](O)[C@@H](O)[C@H](O)[C@H]2C)C1 [Example 136, (2R,3R,4R,5S)-2-methyl-1-(((R)-1-(o-tolyl)piperidin-3-yl)methyl)piperidine-3,4,5-triol] | enhanced binding specificity | < 100 |  | 
C[C@@H]1[C@@H](O)[C@H](O)[C@@H](O)CN1C[C@H]1CCCN(c2ccccc2F)C1 [Example 137, (2R,3R,4R,5S)-1-(((R)-1-(2-fluorophenyl)piperidin-3-yl)methyl)-2-methylpiperidine-3,4,5-triol] | enhanced binding specificity | < 100 |  | 
C[C@@H]1[C@@H](O)[C@H](O)[C@@H](O)CN1C[C@H]1CCCN(c2ncccc2C(F)(F)F)C1 [Example 138, (2R,3R,4R,5S)-2-methyl-1-(((R)-1-(3-(trifluoromethyl)pyridin-2-yl)piperidin-3-yl)methyl)piperidine-3,4,5-triol] | enhanced binding specificity | < 100 |  | 
C[C@@H]1[C@@H](O)[C@H](O)[C@@H](O)CN1C[C@H]1CCCN(c2cccc(C(F)(F)F)n2)C1 [Example 139, (2R,3R,4R,5S)-2-methyl-1-(((R)-1-(6-(trifluoromethyl)pyridin-2-yl)piperidin-3-yl)methyl)piperidine-3,4,5-triol] | enhanced binding specificity | < 100 |  | 
C[C@@H]1[C@@H](O)[C@H](O)[C@@H](O)CN1C[C@H]1CCCN(c2cnccc2C(F)(F)F)C1 [Example 140, (2R,3R,4R,5S)-2-methyl-1-(((R)-1-(4-(trifluoromethyl)pyridin-3-yl)piperidin-3-yl)methyl)piperidine-3,4,5-triol] | enhanced binding specificity | < 100 |  | 
C[C@@H]1[C@@H](O)[C@H](O)[C@@H](O)CN1C[C@@H]1CCCN(c2ncccc2C(F)(F)F)C1 [Example 141, (2R,3R,4R,5S)-2-methyl-1-(((S)-1-(3-(trifluoromethyl)pyridin-2-yl)piperidin-3-yl)methyl)piperidine-3,4,5-triol] | enhanced binding specificity | < 100 |  | 
C[C@@H]1[C@@H](O)[C@H](O)[C@@H](O)CN1C[C@@H]1CCCN(c2cnccc2C(F)(F)F)C1 [Example 142, (2R,3R,4R,5S)-2-methyl-1-(((S)-1-(4-(trifluoromethyl)pyridin-3-yl)piperidin-3-yl)methyl)piperidine-3,4,5-triol] | enhanced binding specificity | < 100 |  | 
O[C@H]1[C@H](O)[C@@H](O)CN(C[C@H]2CC[C@H](C(F)(F)F)CC2)[C@@H]1CF [Example 147, (2S,3R,4R,5S)-2-(fluoromethyl)-1-(((1r,4S)-4-(trifluoromethyl)cyclohexyl)methyl)piperidine-3,4,5-triol] | enhanced binding specificity | < 100 |  | 
O[C@H]1[C@H](O)[C@@H](O)CN(CCc2c(F)cc(-c3ccccc3)cc2F)[C@@H]1CF [Example 151, (2S,3R,4R,5S)-1-(2-(3,5-difluoro-[1,1′-biphenyl]-4-yl)ethyl)-2-(fluoromethyl)piperidine-3,4,5-triol] | enhanced binding specificity | < 100 |  | 
O[C@H]1[C@H](O)[C@@H](O)CN(CCc2cc3c(cc2F)OCO3)[C@@H]1CF [Example 152, (2S,3R,4R,5S)-1-(2-(6-fluorobenzo[d][1,3]dioxol-5-yl)ethyl)-2-(fluoromethyl)piperidine-3,4,5-triol] | enhanced binding specificity |  |  | < 100
